From patent US5580956A, “Phospholipase C-inhibiting peptides” (priority 1992, dated 1996)
Values after ≈ are worked out from the molar mass of the structure shown. Numbered stars: 1 amine (or outer) side, 2 acyl side, 3 side chain; on linkers, the order of the positions; unused ones are H or OH. Peptide text beside a SMILES is read from it. * marks the point of attachment. Cyclohexylacetyl = O=C(CC1CCCCC1)*; Cyclopropanecarbonyl = O=C(C1CC1)*; Butanoyl(2-Et) = CCC(CC)C(=O)*; Suc = O=C(CCC(=O)[*:2])[*:1]; Nonanoyl = CCCCCCCCC(=O)*; Isobutyryl = CC(C)C(=O)*; Butyryl = CCCC(=O)*

Experiments:
KMS-4 cells = assay: Cell proliferation-inhibiting activity (BrdU incorporation, Amersham Cell Proliferation Detection Kit); format: cell-based; details: 17 hours with peptide, BrdU-stained cells
Method: The following procedure was carried out with an Amersham Cell Proliferation Detection Kit. First, cells [KMS-4; M. Nanba et al., International Journal of Cancer, 32, 697 (1983)] were suspended in a DMEM culture medium (product of Nissui Seiyaku) containing 10% fetal calf serum to a concentration of 1-2×10^4 cells/ml, and 1 ml of the above-mentioned cell suspension was put into each well of a 24-well plate (product of Corning Co.). The cells were cultured for 2 days in a CO2 incubator (37° C., 5% CO2). Next, the culture medium was exchanged with a DMEM medium containing 10% fetal calf serum, and then the test peptide was added thereto and culturing was carried out for 17 hours. The culture medium was again exchanged with a serum-free DMEM medium, 0.5 ml of a solution of the reagents labelled 5-bromo-2'-deoxyuridine (BrdU) and 5-fluoro-2'-deoxyuridine (FdU) [10:1] diluted 1000-fold with the same medium was added to each well, and cultured for 2 hours. The culture medium was removed, and the cells were immobilized with an acetic acid/ethanol solution. The immobilized cells were stained according to the method for the Amersham Cell Proliferation Kit, and then further stained with a 1% Giemsa solution (product of Merck Co.). The number of cells incorporating BrdU and the total cell count within 1 field of vision of the microscope (approximately 200 cells) were determined, and the proportion (%) of stained cells per field of vision was calculated. Furthermore, the same procedure was repeated 10 times, and the average value thereof was defined as the cell proliferation activity (%). The cell proliferation-inhibiting activity was calculated in the following manner. The proliferation activity without addition of peptide was defined as "A", the proliferation activity with addition of the test peptide was defined as "B", and the cell proliferation inhibition rate (X) was determined according to the following equation. X (%)=[…]

[1] = system: Proteus vulgaris ATCC6897; format: cell-based; details: ATCC6897, pH 7
Method: (§1) The antibacterial activity was determined by the agar dilution method using a culture medium (pH 7.0) containing 3 g/l bactotrypton (product of Difco Co.), 1 g/l meat extract, 1 g/l glucose and 16 g/l agar.

[2] = system: Pseudomonas aeruginosa Bin H No. 1; format: cell-based; details: Bin H No. 1, pH 7
Method: as §1

PLC-γ1 = biological target: T1, PLC-γ1 (Bos taurus, UniProt P08487); assay: PLC-inhibiting activity (release of [3H]inositol phosphate from [3H]PIP2); format: biochemical, bovine; details: PI-PLC-γ1, 37° C., 10 minutes; for inhibition at 120 µM (stock): Concentration 120 μM (aqueous solution of test peptide)
T1 construct: A sample (PLC-γ1) was prepared from bovine thymus according to the method of Y. Homma et al; from tissue; host or cells: bovine thymus
T1 sequence (P08487 1-1291): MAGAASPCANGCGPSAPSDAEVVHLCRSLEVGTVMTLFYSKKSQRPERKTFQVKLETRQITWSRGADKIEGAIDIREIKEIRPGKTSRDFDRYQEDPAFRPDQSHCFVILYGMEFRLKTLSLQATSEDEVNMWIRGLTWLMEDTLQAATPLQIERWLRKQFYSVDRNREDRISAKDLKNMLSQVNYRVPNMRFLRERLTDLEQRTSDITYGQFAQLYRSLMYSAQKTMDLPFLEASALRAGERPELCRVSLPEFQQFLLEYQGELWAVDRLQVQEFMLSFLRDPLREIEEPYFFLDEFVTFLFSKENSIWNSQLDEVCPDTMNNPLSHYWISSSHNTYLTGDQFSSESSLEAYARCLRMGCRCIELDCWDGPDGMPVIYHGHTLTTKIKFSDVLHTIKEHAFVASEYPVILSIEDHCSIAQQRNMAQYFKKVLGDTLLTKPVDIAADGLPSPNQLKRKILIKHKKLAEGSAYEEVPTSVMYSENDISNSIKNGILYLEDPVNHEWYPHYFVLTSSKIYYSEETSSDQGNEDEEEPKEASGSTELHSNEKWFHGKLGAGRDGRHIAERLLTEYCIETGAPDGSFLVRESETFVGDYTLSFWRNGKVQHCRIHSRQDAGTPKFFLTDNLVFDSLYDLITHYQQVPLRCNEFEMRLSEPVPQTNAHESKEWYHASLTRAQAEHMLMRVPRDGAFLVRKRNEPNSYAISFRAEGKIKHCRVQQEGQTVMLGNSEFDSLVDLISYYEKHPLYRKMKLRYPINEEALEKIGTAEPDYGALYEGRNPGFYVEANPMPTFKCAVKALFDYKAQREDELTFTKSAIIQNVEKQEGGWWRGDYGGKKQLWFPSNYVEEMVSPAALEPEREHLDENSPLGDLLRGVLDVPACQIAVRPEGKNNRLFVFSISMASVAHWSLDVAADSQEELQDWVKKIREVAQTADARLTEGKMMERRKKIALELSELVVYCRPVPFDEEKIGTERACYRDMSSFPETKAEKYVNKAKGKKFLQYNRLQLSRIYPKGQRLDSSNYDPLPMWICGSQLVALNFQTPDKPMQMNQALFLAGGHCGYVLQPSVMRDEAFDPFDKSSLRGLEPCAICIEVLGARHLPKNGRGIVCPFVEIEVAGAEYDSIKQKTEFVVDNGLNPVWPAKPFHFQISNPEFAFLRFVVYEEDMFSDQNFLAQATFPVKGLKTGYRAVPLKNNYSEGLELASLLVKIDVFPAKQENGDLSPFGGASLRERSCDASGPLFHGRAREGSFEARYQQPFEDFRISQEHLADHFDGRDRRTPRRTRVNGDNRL
Method: A sample (PLC-γ1) was prepared from bovine thymus according to the method of Y. Homma et al. described in Biochemical Journal [(Biochem. J.), 269, 13 (1990)]. A solution having the composition listed in Table 1 below was prepared in advance on the ice and the reaction was begun with heating to 37° C. After incubation for 10 minutes, 2 ml of a solution mixture of chloroform/methanol (2:[…]) was added thereto to stop the reaction. The resulting inositol phosphate was extracted with 0.5 ml of 1N hydrochloric acid. Two-phase distribution was carried out by centrifugation (2000×g, 3 minutes), and the amount of ^3 H contained in 0.7 ml of the supernatant was measured with scintillation counter. […] The obtained value of specific radioactivity was defined as "A", the value of specific radioactivity obtained when an equivalent amount of water was added instead of the aqueous solution of the test peptide was defined as "B", the value of specific radioactivity obtained when an equivalent amount of water was added instead of the sample and the aqueous solution of the test peptide was defined as "C", and the inhibition rate (X) was determined according to the following equation. X(%)=[…]

Compound	Cell proliferation inhibition rate (%) (KMS-4 cells; Concentration 32 μM)	MIC [1] [µg/mL]	MIC [2] [µg/mL]	Cell proliferation inhibition rate (%) (KMS-4 cells; Concentration 31 μM)	inhibition at 120 µM (stock) (PLC-γ1; read-out: Inhibition rate (%)) [%]	further results
CSCC[C@H](NC(=O)[C@H](CCCCN)NC(=O)[C@H](CCCNC(=N)N)NC(=O)[C@H](Cc1ccc(O)cc1)NC(=O)[C@H](CC(C)C)NC(=O)C(C)C)C(=O)N[C@@H](CCCNC(=N)N)C(=O)N[C@@H](CC(C)C)C(=O)N[C@@H](CCCNC(=N)N)C(=O)N[C@@H](Cc1ccc(O)cc1)C(=O)N1CCC[C@H]1C(=O)N[C@H](C(N)=O)C(C)C [(I-19), (CH3)2 CHCO-Leu-Tyr-Arg-Lys-Met-Arg-Leu-Arg-Tyr-Pro-Val-NH2] (Isobutyryl-LYRKMRLRYPV-NH2)	59	83 (≈ 53.1 µM)	83 (≈ 53.1 µM)			inhibition at 640 µM (stock) (PLC-γ1; Concentration 640 μM (aqueous solution of test peptide), read-out: Inhibition rate (%)): 67%
CCC(CC)C(=O)N[C@@H](CC(C)C)C(=O)N[C@@H](Cc1ccc(O)cc1)C(=O)N[C@@H](CCCNC(=N)N)C(=O)N[C@@H](CCCCN)C(=O)N[C@@H](CCSC)C(=O)N[C@@H](CCCNC(=N)N)C(=O)N[C@@H](CC(C)C)C(=O)N[C@@H](CCCNC(=N)N)C(=O)N[C@@H](Cc1ccc(O)cc1)C(=O)N1CCC[C@H]1C(=O)N[C@H](C(N)=O)C(C)C [(I-20), (CH3 CH2)2 CHCO-Leu-Tyr-Arg-Lys-Met-Arg-Leu-Arg-Tyr-Pro-Val-NH2] ({Butanoyl(2-Et)}-LYRKMRLRYPV-NH2)		83 (≈ 52.1 µM)	83 (≈ 52.1 µM)	44		inhibition at 630 µM (stock) (PLC-γ1; Concentration 630 μM (aqueous solution of test peptide), read-out: Inhibition rate (%)): 74%
CSCC[C@H](NC(=O)[C@H](CCCCN)NC(=O)[C@H](CCCNC(=N)N)NC(=O)[C@H](Cc1ccc(O)cc1)NC(=O)[C@H](CC(C)C)NC(=O)CCC(=O)O)C(=O)N[C@@H](CCCNC(=N)N)C(=O)N[C@@H](CC(C)C)C(=O)N[C@@H](CCCNC(=N)N)C(=O)N[C@@H](Cc1ccc(O)cc1)C(=O)N1CCC[C@H]1C(=O)N[C@H](C(N)=O)C(C)C [(I-22), HOO (CH2)2 CO-Leu-Tyr-Arg-Lys-Met-Arg-Leu-Arg-Tyr-Pro-Val-NH2] (Suc-LYRKMRLRYPV-NH2)		83 (≈ 52.1 µM)	42 (≈ 26.3 µM)	84		inhibition at 130 µM (stock) (PLC-γ1; Concentration 130 μM (aqueous solution of test peptide), read-out: Inhibition rate (%)): 36%
CSCC[C@H](NC(=O)[C@H](CCCCN)NC(=O)[C@H](CCCNC(=N)N)NC(=O)[C@H](Cc1ccc(O)cc1)NC(=O)[C@H](CC(C)C)NC(=O)C1CC1)C(=O)N[C@@H](CCCNC(=N)N)C(=O)N[C@@H](CC(C)C)C(=O)N[C@@H](CCCNC(=N)N)C(=O)N[C@@H](Cc1ccc(O)cc1)C(=O)N1CCC[C@H]1C(=O)N[C@H](C(N)=O)C(C)C [(I-24), C3 H5 CO-Leu-Tyr-Arg-Lys-Met-Arg-Leu-Arg-Tyr-Pro-Val-NH2] (Cyclopropanecarbonyl-LYRKMRLRYPV-NH2)	66				55	
CSCC[C@H](NC(=O)[C@H](CCCCN)NC(=O)[C@H](CCCNC(=N)N)NC(=O)[C@H](Cc1ccc(O)cc1)NC(=O)[C@H](CC(C)C)NC(=O)CC1CCCCC1)C(=O)N[C@@H](CCCNC(=N)N)C(=O)N[C@@H](CC(C)C)C(=O)N[C@@H](CCCNC(=N)N)C(=O)N[C@@H](Cc1ccc(O)cc1)C(=O)N1CCC[C@H]1C(=O)N[C@H](C(N)=O)C(C)C [(I-25), C6 H11 CH2 CO-Leu-Tyr-Arg-Lys-Met-Arg-Leu-Arg-Tyr-Pro-Val-NH2] (Cyclohexylacetyl-LYRKMRLRYPV-NH2)				75	50	
CCCCCCCCC(=O)N[C@@H](CC(C)C)C(=O)N[C@@H](Cc1ccc(O)cc1)C(=O)N[C@@H](CCCNC(=N)N)C(=O)N[C@@H](CCCCN)C(=O)N[C@@H](CCSC)C(=O)N[C@@H](CCCNC(=N)N)C(=O)N[C@@H](CC(C)C)C(=O)N[C@@H](CCCNC(=N)N)C(=O)N[C@@H](Cc1ccc(O)cc1)C(=O)N1CCC[C@H]1C(=O)N[C@H](C(N)=O)C(C)C [(I-28), CH3 (CH2)7 CO-Leu-Tyr-Arg-Lys-Met-Arg-Leu-Arg-Tyr-Pro-Val-NH2] (Nonanoyl-LYRKMRLRYPV-NH2)				22	78	
H-YRKMRLRY-NH2 [Compound (I-9), H-Tyr-Arg-Lys-Met-Arg-Leu-Arg-Tyr-NH2]						Cell proliferation inhibition rate (%) (KMS-4 cells; Concentration 42 μM): 50%; inhibition at 850 µM (stock) (PLC-γ1; Concentration 850 μM (aqueous solution of test peptide), read-out: Inhibition rate (%)): 34%
n-C3 H7 CO-Leu-Tyr-Arg-Lys-Met-Arg-Leu-Arg-Tyr-Pro-Val-NH2 (Butyryl-LYRKMRLRYPV-NH2; SMILES CCCC(=O)N[C@@H](CC(C)C)C(=O)N[C@@H](Cc1ccc(O)cc1)C(=O)N[C@@H](CCCNC(=N)N)C(=O)N[C@@H](CCCCN)C(=O)N[C@@H](CCSC)C(=O)N[C@@H](CCCNC(=N)N)C(=O)N[C@@H](CC(C)C)C(=O)N[C@@H](CCCNC(=N)N)C(=O)N[C@@H](Cc1ccc(O)cc1)C(=O)N1CCC[C@H]1C(=O)N[C@H](C(N)=O)C(C)C) [Compound (I-11)]	84					Cell proliferation inhibition rate (%) (KMS-4 cells; Concentration 1 μM): 86%; Inhibition rate (%) (PLC-γ1; Concentration 130 μM (aqueous solution of test peptide)): 31%
